The values below come from US20240173440A1, “HIGH PURITY COPPER RADIOPHARMACEUTICAL COMPOSITIONS AND DIAGNOSTIC AND THERAPEUTIC USES THEREOF” (Nuclidium AG, priority 2022, published 2024).

A short description of data set [1]: Lipophilicity, log D by shake-flask method (1-octanol/PBS pH 7.4). In kind it is physicochemical. Particulars: shake-flask, Table 17, mean ± SD. The gist of the method: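 Radiotracer shaken 30 min in pre-saturated 1-octanol/PBS pH 7.4 (1:1), then centrifuged for phase separation. Radioactivity in each phase measured by gamma counting; log D reported as the average log of organic/PBS activity ratio.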

Data set [2] concerns LNCaP xenografts. Kind of data set: PET/CT imaging in LNCaP xenografted mice. Format: in vivo. The note with it: LNCaP-xenografted nude mice. As for the experimental part:
Tumor xenografted mice were injected intravenously into the tail vein with the tested radiotracer. […] Mice were anesthetized with 1.5% isoflurane and dynamic PET scans were acquired during 1 hour upon injection of the radiotracer. The mice were euthanized by CO2 at 4 hours p.i., the bladder was mechanically emptied, and static PET scans were acquired for 30 min. PET images were acquired using the R-CUBE PET scanner system (MOLECUBES, Gent, Belgium) and they were decay corrected and reconstructed with the VivoQuant software version 4.0. The CT was imaged supine, headfirst, using the NanoSPECT/CT™ scanner (Bioscan Inc.). Topograms and helical CT scans of the whole mouse were first acquired using the following parameters: X-ray tube current: 177 μA, X-ray tube voltage 45 kVp, 90 seconds and 180 frames per rotation, pitch 1. CT images were reconstructed using CTReco (version r1.146), with a standard filtered back projection algorithm (exact cone beam) and post-filtered (RamLak, 100% frequency cut-off), resulting in a pixel size of 0.2 mm. Co-registered PET/CT images were visualized using maximum intensity projection (MIP) with InVivoScope (version 1.43, Bioscan Inc.). The results are presented in the Examples that follow.

Data set [3] concerns the target PSMA (Homo sapiens (Human), UniProt Q04609). Kind of data set: Specificity study: PET/CT in LNCaP xenografts after blocking with 2-PMPA, and free [61Cu]CuCl2. In kind it is in vivo, mice. The note with it: PET/CT 1 hour p.i. As for the experimental part:
The specificity of [^61Cu]Cu-NODAGA-PSMA-I&T and [^61Cu]Cu-DOTAGA-PSMA-I&T was assessed in LNCaP xenografted mice, firstly injected with 1.3 μmol (300 μg) of 2-Phosphonomethyl pentanedioic acid (2-PMPA) as the blocking agent, followed by the injection of the radiotracer e.g. [^61Cu]Cu-DOTAGA-PSMA-I&T (100 μL/[…]/4-8 MBq) or [^61Cu]Cu-NODAGA-PSMA-I&T (100 μL/[…]/4-8 MBq). One-hour post injection PET/CT images were acquired as described in Example 8. In addition, PET/CT image of xenografts after injection of [^61Cu]CuCl2 (100 μL/7 MBq) was acquired in order to assess the total body distribution of free (uncomplexed)^61Cu. The results are shown in FIG. 10, panels A and B. L=liver; K=kidneys; T=tumor; Bl=bladder; I=intestine.

Each structure is given as a SMILES string.

Chain of PSMA (Q04609 whole entry): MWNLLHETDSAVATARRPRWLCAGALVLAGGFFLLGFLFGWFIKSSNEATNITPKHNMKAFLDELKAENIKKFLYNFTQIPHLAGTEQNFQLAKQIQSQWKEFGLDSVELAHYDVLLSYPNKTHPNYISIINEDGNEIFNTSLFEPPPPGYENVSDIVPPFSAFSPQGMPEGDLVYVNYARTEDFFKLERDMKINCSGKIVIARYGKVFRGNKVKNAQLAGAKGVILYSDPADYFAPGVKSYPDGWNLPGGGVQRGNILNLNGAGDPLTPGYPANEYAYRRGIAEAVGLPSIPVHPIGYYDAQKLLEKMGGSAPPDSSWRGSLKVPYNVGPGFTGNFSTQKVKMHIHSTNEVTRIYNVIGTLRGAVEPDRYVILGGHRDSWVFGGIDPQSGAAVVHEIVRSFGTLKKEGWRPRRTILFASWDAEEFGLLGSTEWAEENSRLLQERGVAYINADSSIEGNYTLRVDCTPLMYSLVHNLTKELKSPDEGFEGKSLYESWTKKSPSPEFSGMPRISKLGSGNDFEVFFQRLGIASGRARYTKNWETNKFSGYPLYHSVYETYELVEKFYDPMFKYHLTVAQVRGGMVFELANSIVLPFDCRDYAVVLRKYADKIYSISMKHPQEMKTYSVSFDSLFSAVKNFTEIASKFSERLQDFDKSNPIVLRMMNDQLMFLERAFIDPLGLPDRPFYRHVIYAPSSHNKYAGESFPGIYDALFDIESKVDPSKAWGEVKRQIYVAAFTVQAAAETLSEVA

In the case of `O=C(O)CC[C@H](NC(=O)N[C@@H](CCCCNC(=O)CCCCCCC(=O)NCCCC[C@@H](NC(=O)[C@@H](Cc1ccccc1)NC(=O)[C@@H](Cc1ccc(O)c(I)c1)NC(=O)CC[C@H](C(=O)O)N1CCN2CCN(CC1)CC(=O)[O][61Cu][O]C(=O)C2)C(=O)O)C(=O)O)C(=O)O` [[^61Cu]Cu-NODAGA-PSMA-I&T], in data set [1], the “log D(O/PBS pH 7.4)” value is −2.95±0.08. Besides, the “distribution on PET/CT images” value in data set [2] was “accumulated in the tumor, increasing from 15 up to 60 min p.i., and in the kidneys”. Further, in data set [3], the “uptake in PSMA-positive tumors and kidneys in xenografts pre-injected with 2-PMPA” value is reported as “significantly lower uptake”.
